From patent publication US10640506B2, “Cyclobutyl substituted pyrrolopyridine and pyrrolopyrimidines derivatives as JAK inhibitors” (Incyte Corporation, priority 2010, dated 2020)
Counter-ions that a name gives are not always drawn. Like-named read-outs stand apart in the source and are kept apart here.

Tests used:
JAK2 (a.a. 828-1132) = biological target: T1, JAK2 (a.a. 828-1132) (Homo sapiens, UniProt O60674); assay: In vitro JAK kinase assay (HTRF, phosphorylation of biotinylated peptide), JAK2; format: biochemical
T1 construct: JAK2 (a.a. 828-1132); His tag (N)
T1 sequence (O60674 828-1132): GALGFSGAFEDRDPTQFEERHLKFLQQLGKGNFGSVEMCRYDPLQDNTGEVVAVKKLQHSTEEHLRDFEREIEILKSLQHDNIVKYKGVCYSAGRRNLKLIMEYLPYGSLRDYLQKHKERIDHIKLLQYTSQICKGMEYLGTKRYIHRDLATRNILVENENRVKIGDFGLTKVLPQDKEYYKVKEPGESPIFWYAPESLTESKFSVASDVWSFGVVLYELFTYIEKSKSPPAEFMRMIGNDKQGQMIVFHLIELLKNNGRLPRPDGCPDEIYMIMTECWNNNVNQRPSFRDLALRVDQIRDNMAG
Method: Compounds herein were tested for inhibitory activity of JAK targets according to the following in vitro assay described in Park et al., Analytical Biochemistry 1999, 269, 94-104. The catalytic domains of human JAK1 (a.a. 837-1142) and JAK2 (a.a. 828-1132) with an N-terminal His tag were expressed using baculovirus in insect cells and purified. The catalytic activity of JAK1 and JAK2 was assayed by measuring the phosphorylation of a biotinylated peptide. The phosphorylated peptide was detected by homogenous time resolved fluorescence (HTRF). […] Reactions were carried out at room temperature for 1 hour and then stopped with 20 μL 45 mM EDTA, 300 nM SA-APC, 6 nM Eu-Py20 in assay buffer (Perkin Elmer, Boston, Mass.). Binding to the Europium labeled antibody took place for 40 minutes and HTRF signal was measured on a Fusion plate reader (Perkin Elmer, Boston, Mass.). See Tables A-F for data related to compounds of the Examples (at 1 mM). Data is indicated as ranges, wherein “+” is less than 10 nM; “++” is 10 nM to 25 nM; “+++” is greater than 25 nM to 100 nM; and “++++” is greater than 100 nM. Greater than 25 nM to 100 nM specifies a range with a lower endpoint “at greater than 25 nM” and an upper endpoint at 100 nM.

[1] = biological target: human JAK1 (a.a. 837-1142) (Homo sapiens, UniProt P23458); assay: In vitro JAK kinase assay (HTRF, phosphorylation of biotinylated peptide), JAK1; format: biochemical
human JAK1 (a.a. 837-1142), sequence (P23458 849-1154): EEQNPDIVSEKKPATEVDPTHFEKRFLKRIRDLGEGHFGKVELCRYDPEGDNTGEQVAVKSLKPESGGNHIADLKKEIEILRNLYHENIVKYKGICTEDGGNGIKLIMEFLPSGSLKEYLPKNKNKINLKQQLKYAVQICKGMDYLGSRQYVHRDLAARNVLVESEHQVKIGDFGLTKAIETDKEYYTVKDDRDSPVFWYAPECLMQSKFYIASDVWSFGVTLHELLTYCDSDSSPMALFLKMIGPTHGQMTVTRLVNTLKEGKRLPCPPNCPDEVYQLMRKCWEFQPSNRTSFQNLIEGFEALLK
Method: Compounds herein were tested for inhibitory activity of JAK targets according to the following in vitro assay described in Park et al., Analytical Biochemistry 1999, 269, 94-104. The catalytic domains of human JAK1 (a.a. 837-1142) and JAK2 (a.a. 828-1132) with an N-terminal His tag were expressed using baculovirus in insect cells and purified. The catalytic activity of JAK1 and JAK2 was assayed by measuring the phosphorylation of a biotinylated peptide. The phosphorylated peptide was detected by homogenous time resolved fluorescence (HTRF). […] Reactions were carried out at room temperature for 1 hour and then stopped with 20 μL 45 mM EDTA, 300 nM SA-APC, 6 nM Eu-Py20 in assay buffer (Perkin Elmer, Boston, Mass.). Binding to the Europium labeled antibody took place for 40 minutes and HTRF signal was measured on a Fusion plate reader (Perkin Elmer, Boston, Mass.). […] Data is indicated as ranges, wherein “+” is less than 10 nM; “++” is 10 nM to 25 nM; “+++” is greater than 25 nM to 100 nM; and “++++” is greater than 100 nM. Greater than 25 nM to 100 nM specifies a range with a lower endpoint “at greater than 25 nM” and an upper endpoint at 100 nM.

[2] = read-out: JAK2 IC50 (nM) at 1 mM ATP, Table F
[3] = Table A, 1 mM ATP, read-out: JAK2 IC50
[4] = Table A, 1 mM ATP, read-out: JAK1 IC50
[5] = Table B, 1 mM ATP, read-out: JAK2 IC50
[6] = Table B, 1 mM ATP, read-out: JAK1 IC50

Row | IC50 (JAK2 (a.a. 828-1132); [3]) | IC50 [1, 4] | IC50 (JAK2 (a.a. 828-1132); [5]) | IC50 [1, 6] | SMILES | also measured
1 | > 100 nM | 25 to 100 nM |  |  | C[C@H]1CCCN1C(=O)N1CCN([C@H]2C[C@@](CC#N)(n3cc(-c4ncnc5[nH]ccc45)cn3)C2)CC1 [Example 4a, {cis-3-(4-{[(2S)-2-methylpyrrolidin-1-yl]carbonyl}piperazin-1-yl)-1-[4-(7H-pyrrolo[2,3-d]pyrimidin-4-yl)-1H-pyrazol-1-yl]cyclobutyl}acetonitrile] | 
2 |  |  | > 100 nM | < 10 nM | C[C@H]1CCCN1C(=O)N1CCN([C@H]2C[C@](CC#N)(n3cc(-c4ncnc5[nH]ccc45)cn3)C2)CC1 [Example 4b, {trans-3-(4-{[(2S)-2-methylpyrrolidin-1-yl]carbonyl}piperazin-1-yl)-1-[4-(7H-pyrrolo[2,3-d]pyrimidin-4-yl)-1H-pyrazol-1-yl]cyclobutyl}acetonitrile] | 
3 | > 100 nM | 10 to 25 nM |  |  | N#CC[C@]1(n2cc(-c3ncnc4[nH]ccc34)cn2)C[C@@H](N2CCN(C(=O)c3ccnc(C(F)(F)F)c3F)CC2)C1 [Example 6a, {cis-3-{4-[3-fluoro-2-(trifluoromethyl)isonicotinoyl]piperazin-1-yl}-1-[4-(7H-pyrrolo[2,3-d]pyrimidin-4-yl)-1H-pyrazol-1-yl]cyclobutyl}acetonitrile] | 
4 |  |  | 25 to 100 nM | < 10 nM | N#CC[C@]1(n2cc(-c3ncnc4[nH]ccc34)cn2)C[C@H](N2CCN(C(=O)c3ccnc(C(F)(F)F)c3F)CC2)C1 [Example 6b, {trans-3-{4-[3-fluoro-2-(trifluoromethyl)isonicotinoyl]piperazin-1-yl}-1-[4-(7H-pyrrolo[2,3-d]pyrimidin-4-yl)-1H-pyrazol-1-yl]cyclobutyl}acetonitrile] | 
5 | > 100 nM | 10 to 25 nM |  |  | N#CC[C@]1(n2cc(-c3ncnc4[nH]ccc34)cn2)C[C@@H](N2CCN(C(=O)c3ccnc(C(F)(F)F)n3)CC2)C1 [Example 7a, [cis-1-[4-(7H-pyrrolo[2,3-d]pyrimidin-4-yl)-1H-pyrazol-1-yl]-3-(4-{[2-(trifluoromethyl)pyrimidin-4-yl]carbonyl}piperazin-1-yl)cyclobutyl]acetonitrile] | 
6 |  |  | 25 to 100 nM | < 10 nM | N#CC[C@]1(n2cc(-c3ncnc4[nH]ccc34)cn2)C[C@H](N2CCN(C(=O)c3ccnc(C(F)(F)F)n3)CC2)C1 [Example 7b, [trans-1-[4-(7H-pyrrolo[2,3-d]pyrimidin-4-yl)-1H-pyrazol-1-yl]-3-(4-{[2-(trifluoromethyl)pyrimidin-4-yl]carbonyl}piperazin-1-yl)cyclobutyl]acetonitrile] | 
7 | 25 to 100 nM | < 10 nM |  |  | N#CC[C@]1(n2cc(-c3ncnc4[nH]ccc34)cn2)C[C@@H](N2CCN(C(=O)c3cc(F)cc(F)c3)CC2)C1 [Example 8a, {cis-3-[4-(3,5-difluorobenzoyl)piperazin-1-yl]-1-[4-(7H-pyrrolo[2,3-d]pyrimidin-4-yl)-1H-pyrazol-1-yl]cyclobutyl}acetonitrile] | 
8 |  |  | < 10 nM | < 10 nM | N#CC[C@]1(n2cc(-c3ncnc4[nH]ccc34)cn2)C[C@H](N2CCN(C(=O)c3cc(F)cc(F)c3)CC2)C1 [Example 8b, {trans-3-[4-(3,5-difluorobenzoyl)piperazin-1-yl]-1-[4-(7H-pyrrolo[2,3-d]pyrimidin-4-yl)-1H-pyrazol-1-yl]cyclobutyl}acetonitrile] | 

Further lines, the compound ahead of its results:

Row | SMILES | IC50 (JAK2 (a.a. 828-1132); [3]) | IC50 [1, 4] | IC50 (JAK2 (a.a. 828-1132); [5]) | IC50 [1, 6] | also measured
9 | N#CCC1(n2cc(-c3ncnc4[nH]ccc34)cn2)CC(N2CCC(Oc3cc(CCO)nc(C(F)(F)F)n3)CC2)C1 (single isomer, unassigned; peak 1) [Example 164, peak 1, {trans-3-(4-{[6-(2-hydroxyethyl)-2-(trifluoromethyl)pyrimidin-4-yl]oxy}piperidin-1-yl)-1-[4-(7H-pyrrolo[2,3-d]pyrimidin-4-yl)-1H-pyrazol-1-yl]cyclobutyl}acetonitrile] |  |  |  |  | IC50 (JAK2 (a.a. 828-1132); [2]): > 100 nM; IC50 ([1]; read-out: JAK1 IC50 (nM) at 1 mM ATP, Table F, listed as 164, peak 1): 10 to 25 nM
10 | N#CCC1(n2cc(-c3ncnc4[nH]ccc34)cn2)CC(N2CCC(Oc3cc(CCO)nc(C(F)(F)F)n3)CC2)C1 (single isomer, unassigned; peak 2) [Example 164, peak 2, {cis-3-(4-{[6-(2-hydroxyethyl)-2-(trifluoromethyl)pyrimidin-4-yl]oxy}piperidin-1-yl)-1-[4-(7H-pyrrolo[2,3-d]pyrimidin-4-yl)-1H-pyrazol-1-yl]cyclobutyl}acetonitrile] |  |  |  |  | IC50 (JAK2 (a.a. 828-1132); [2]): > 100 nM; IC50 ([1]; read-out: JAK1 IC50 (nM) at 1 mM ATP, Table F, listed as 164, peak 2): 25 to 100 nM
11 | N#CC[C@]1(n2cc(-c3ncnc4[nH]ccc34)cn2)C[C@@H](N2CCN(Cc3cc(F)cc(C#N)c3)CC2)C1 [Example 1a, 3-[(4-{cis-3-(cyanomethyl)-3-[4-(7H-pyrrolo[2,3-d]pyrimidin-4-yl)-1H-pyrazol-1-yl]cyclobutyl}piperazin-1-yl)methyl]-5-fluorobenzonitrile] | > 100 nM | < 10 nM |  |  | 
12 | N#CC[C@]1(n2cc(-c3ncnc4[nH]ccc34)cn2)C[C@H](N2CCN(Cc3cc(F)cc(C#N)c3)CC2)C1 [Example 1b, 3-[(4-{trans-3-(cyanomethyl)-3-[4-(7H-pyrrolo[2,3-d]pyrimidin-4-yl)-1H-pyrazol-1-yl]cyclobutyl}piperazin-1-yl)methyl]-5-fluorobenzonitrile] |  |  | 25 to 100 nM | < 10 nM | 
13 | CN(C)c1ccc(CN2CCN([C@H]3C[C@@](CC#N)(n4cc(-c5ncnc6[nH]ccc56)cn4)C3)CC2)c(F)c1C#N [Example 2a, 3-[(4-{cis-3-(cyanomethyl)-3-[4-(7H-pyrrolo[2,3-d]pyrimidin-4-yl)-1H-pyrazol-1-yl]cyclobutyl}piperazin-1-yl)methyl]-6-(dimethylamino)-2-fluorobenzonitrile] | 25 to 100 nM | < 10 nM |  |  | 
14 | CN(C)c1ccc(CN2CCN([C@H]3C[C@](CC#N)(n4cc(-c5ncnc6[nH]ccc56)cn4)C3)CC2)c(F)c1C#N [Example 2b, 3-[(4-{trans-3-(cyanomethyl)-3-[4-(7H-pyrrolo[2,3-d]pyrimidin-4-yl)-1H-pyrazol-1-yl]cyclobutyl}piperazin-1-yl)methyl]-6-(dimethylamino)-2-fluorobenzonitrile] |  |  | 25 to 100 nM | < 10 nM | 
15 | N#CC[C@]1(n2cc(-c3ncnc4[nH]ccc34)cn2)C[C@@H](N2CCN(C(=O)Nc3ccc(F)cc3C(F)(F)F)CC2)C1 [Example 3a, 4-{cis-3-(cyanomethyl)-3-[4-(7H-pyrrolo[2,3-d]pyrimidin-4-yl)-1H-pyrazol-1-yl]cyclobutyl}-N-[4-fluoro-2-(trifluoromethyl)phenyl]piperazine-1-carboxamide 2.4×(trifluoroacetate) Salt] | > 100 nM | 25 to 100 nM |  |  | 
16 | N#CC[C@]1(n2cc(-c3ncnc4[nH]ccc34)cn2)C[C@H](N2CCN(C(=O)Nc3ccc(F)cc3C(F)(F)F)CC2)C1 [Example 3b, 4-{3-(cyanomethyl)-3-[4-(7H-pyrrolo[2,3-d]pyrimidin-4-yl)-1H-pyrazol-1-yl]cyclobutyl}-N-[4-fluoro-2-(trifluoromethyl)phenyl]piperazine-1-carboxamide 2.3×(trifluoroacetate) Salt] |  |  | > 100 nM | 10 to 25 nM | 
17 | CC[C@H]1CCCN1C(=O)N1CCN([C@H]2C[C@](CC#N)(n3cc(-c4ncnc5[nH]ccc45)cn3)C2)CC1 [Example 5, {trans-3-(4-{[(2S)-2-ethylpyrrolidin-1-yl]carbonyl}piperazin-1-yl)-1-[4-(7H-pyrrolo[2,3-d]pyrimidin-4-yl)-1H-pyrazol-1-yl]cyclobutyl}acetonitrile] |  |  | > 100 nM | < 10 nM | 
